Read-outs that look alike come from different tables or passages of the source.
What was measured:
[1] = molecular target: MLL1-WDR5 protein-protein interaction (Homo sapiens (Human), UniProt P61964); assay: WDR5 TR-FRET assay of inhibition against MLL1-WDR5 protein-protein interaction; type: binding
Experimental: WDR5 TR-FRET Assay Procedure: Stock compounds were transferred to the assay plate by Echo Liquid Handler. Reactions were performed in the assay buffer (1×PBS, 300 mM NaCl, 0.5 mM TCEP, 0.1% CHAPS) containing 5 nM WDR5 protein, 10 nM peptide (Ac-ARTEVHLRKS-[Ahx-Ahx] [C]-Alexa Fluor 488-NH2) and 0.25 nM Tb-anti His antibody (Tb-Ab) in 384-well white plate (PerkinElmer) with a final volume of 20 μl. Compounds were incubated with WDR5 protein for 30 min at room temperature. Plates were covered, protected from light and incubated for 60 min at room temperature after adding the peptide and Tb-Ab. EnVision Multimode Plate Reader (PerkinElmer) was used for the TR-FRET assay with excitation wavelength at 340 nm and emission wavelength at 495 and 520 nm. The ratio of the 520/495 wavelengths were used to assess the degree of the FRET signal. IC50 was calculated by fitting the inhibition data using XLfit software to sigmoidal dose-response model.
Biphenyl compound DDO-2084 was reported to be a small molecule inhibitor that can inhibit MLL1-WDR5 protein-protein interaction, reduce MLL1 enzyme catalytic activity, and downregulate the expression of Hox and Meis-1 genes (Eur. J. Med. Chem. 2016, 124, 480-489). DDO-2084 is used as a positive control compound.

[2] = system: MV-411 cells; assay: Anti-proliferative activity against leukemia cells (CellTiterGlo viability, 72 hrs); type: cell-based
Experimental: Procedure: MV-411 or Molm-13 cells were seeded into 384 well plates at 2000 cells/well density in 50 uL according plate map and were allowed to naturally sediment by waiting about 30 min in Clean Bench. Next, plated cells were centrifuged for 1 min at 1000 rpm and the excess cells were transferred into the flasks for further culture. Cells in the assay plates were incubated (at least 4 hrs) at 37° C., 5% CO2 for next process followed by adding the compounds as the plate map indicated. The tests were performed in duplicates with treatment of compounds at 10 pts 3 fold titration in 384 well plates. Taxol was as positive control while DMSO as negative control. To rule out edge effect, the wells on the edge were not seeded and therefore one 384 well plate holds 13 compounds. Cells viability was measured 72 hrs after incubation with compounds and using CellTiterGlo (promega) viability assay according to manufactory's instruction to check the ATP production in each well.
Experiments on anti-proliferative activity against leukemia cells were conducted with some of the compounds of the invention.

[3] = Table 7, read-out: WDR5 TR-FRET Assay (IC50 nM)
[4] = MV4-11, MV-411 human acute monocytic leukemia cell, Table 7
[5] = WDR5 TR-FRET, 5 nM WDR5 protein, 10 nM peptide, read-out: MLL1-WDR5 PPI inhibitory activity
[6] = MV4-11, MV-411 human acute monocytic leukemia cell, Table 6

Row | Compound | IC50 [1, 3] [nM] | GI50 [2, 4] [µM] | GI50 [2, 6] [µM] | further results
1 | C[C@H]1CN(c2cc(F)c(-c3ccc(NC(=O)C4CCCCC4)cc3)cc2Nc2ncnc(Cl)c2N)CCN1C [DDO-2213_005, (S)—N-(5′-((5-amino-6-chloropyrimidin-4-yl)amino)-4′-(3,4-dimethylpiperazin-1-yl)-2′-fluoro-[1,1′-biphenyl]-4-yl)cyclohexanecarboxamide] | 11.1 | 3.37 |  | 
2 | Cc1c(F)c(N)cc(C(=O)Nc2cc(-n3cc(C(=O)NCCCN4CCOCC4)nn3)c(F)cc2N2CCN(C)C(C)C2)c1Cl (centres unmarked) [HYBI_027] |  |  | 20 | IC50 [1, 5]: 10.8 nM
3 | CCN(CC)C(=O)c1cn(-c2cc(NC(=O)c3cc(N)c(F)c(C)c3Cl)c(N3C[C@@H](C)N(C)[C@@H](C)C3)cc2F)nn1 [HYBI_082] |  |  |  | IC50 [1, 5]: 4.91 nM; GI50 ([2]; MV-411 human acute monocytic leukemia cell, Table 6): 2.4 µM
4 | C[C@@H]1CN(c2cc(F)c(-c3ccc(CN4CCOCC4)cc3)cc2Nc2ncnc(Cl)c2N)C[C@H](C)N1C [DDO-2213_018, 6-chloro-N4-(6-fluoro-4′-(morpholinomethyl)-4-((3S,5R)-3,4,5-trimethylpiperazin-1-yl)-[1,1′-biphenyl]-3-yl)pyrimidine-4,5-diamine] | 110 | 10.8 |  | 
5 | C[C@@H]1CN(c2ccc(-c3ccc(NC(=O)CC4CCCCC4)cc3)c(F)c2Nc2ncnc(Cl)c2N)C[C@H](C)N1C [DDO-2213_015, N-(3′-((5-amino-6-chloropyrimidin-4-yl)amino)-2′-fluoro-4′-((3S,5R)-3,4,5-trimethylpiperazin-1-yl)-[1,1′-biphenyl]-4-yl)-2-cyclohexylacetamide] | 85.5 | 4.14 |  | 
6 | C[C@@H]1CN(c2cc(F)c(-c3ccnc(OCC4CC4)c3)cc2Nc2ncnc(Cl)c2N)C[C@H](C)N1C [DDO-2213_009, 6-chloro-N4-(5-(2-(cyclopropylmethoxy)pyridin-4-yl)-4-fluoro-2-((3S,5R)-3,4,5-trimethylpiperazin-1-yl)phenyl)pyrimidine-4,5-diamine] | 33.9 | 1.69 |  | 
7 | C[C@H]1CN(c2ccc(-c3ccc(C(=O)NCCN4CCOCC4)cc3)c(F)c2Nc2ncnc(Cl)c2N)CCN1C [DDO-2213_012, (S)-3′-((5-amino-6-chloropyrimidin-4-yl)amino)-4′-(3,4-dimethylpiperazin-1-yl)-2′-fluoro-N-(2-morpholinoethyl)-[1,1′-biphenyl]-4-carboxamide] | 56.4 | 104 |  | 
8 | C[C@@H]1CN(c2ccc(-c3ccc(NC(=O)C4CCCCC4)cc3)c(F)c2Nc2ncnc(Cl)c2N)C[C@H](C)N1C [DDO-2213_014, N-(3′-((5-amino-6-chloropyrimidin-4-yl)amino)-2′-fluoro-4′-((3S,5R)-3,4,5-trimethylpiperazin-1-yl)-[1,1′-biphenyl]-4-yl)cyclohexanecarboxamide] | 186 | 8.26 |  | 
9 | C[C@@H]1CN(c2cc(F)c(-c3ccnc(N4CCO[C@@H](C)C4)n3)cc2Nc2ncnc(Cl)c2N)C[C@H](C)N1C [DDO-2213_029, 6-chloro-N4-(4-fluoro-5-(2-((S)-2-methylmorpholino)pyrimidin-4-yl)-2-((3S,5R)-3,4,5-trimethylpiperazin-1-yl)phenyl)pyrimidine-4,5-diamine] | 12.9 | 17.2 |  | 
10 | CN1CCN(c2ccc(-n3cc(C(=O)NCCCN4CCOCC4)nn3)cc2NC(=O)c2cc(O)cc(F)c2F)CC1 [HYBI_047] |  |  | 16.8 | IC50 [1, 5]: 466 nM
11 | C[C@H]1CN(c2cc(F)c(-c3ccc(C(=O)NCC4CCOCC4)cc3)cc2Nc2ncnc(Cl)c2N)CCN1C [DDO-2213_016, (S)-5′-((5-amino-6-chloropyrimidin-4-yl)amino)-4′-(3,4-dimethylpiperazin-1-yl)-2′-fluoro-N-((tetrahydro-2H-pyran-4-yl)methyl)-[1,1′-biphenyl]-4-carboxamide] | 12.2 | 6.31 |  | 
12 | CN1CCN(c2ccc(-n3cc(C(=O)NCCCN4CCOCC4)nn3)cc2NC(=O)c2ccc(F)c(C(F)(F)F)c2)CC1 [HYBI_042] |  |  | 4.75 | IC50 [1, 5]: 802 nM
13 | CN1CCCN(c2cc(F)c(-c3ccc(C(=O)N(C)C)cc3)cc2Nc2ncnc(Cl)c2N)CC1 [DDO-2213_003, 5′-((5-amino-6-chloropyrimidin-4-yl)amino)-2′-fluoro-N,N-dimethyl-4′-(4-methyl-1,4-diazepan-1-yl)-[1,1′-biphenyl]-4-carboxamide] | 395 | 59.9 |  | 
14 | Cc1c(F)c(N)cc(C(=O)Nc2cc(-n3cc(C(=O)N(C)CCCO)nn3)ccc2N2CCN(C)CC2)c1Cl [HYBI_019A] |  |  | 24.9 | IC50 [1, 5]: 17.1 nM
15 | C[C@@H]1CN(c2cc(F)c(-c3cnc(N4CCOCC4)nc3)cc2Nc2ncnc(Cl)c2N)C[C@H](C)N1C [DDO-2213_021, 6-chloro-N4-(4-fluoro-5-(2-morpholinopyrimidin-5-yl)-2-((3S,5R)-3,4,5-trimethylpiperazin-1-yl)phenyl)pyrimidine-4,5-diamine] | 23.4 | 9.01 |  | 
16 | Cc1c(F)c(N)cc(C(=O)Nc2cc(-n3cc(C(=O)NCC4CCCCC4)nn3)c(F)cc2N2C[C@@H](C)N(C)[C@@H](C)C2)c1Cl [HYBI_110] |  |  | 25 | IC50 [1, 5]: 3 nM

Row | Compound | IC50 [1, 3] [nM] | GI50 [2, 4] [µM] | GI50 [2, 6] [µM] | further results
17 | Cc1c(F)c([N+](=O)[O-])cc(C(=O)Nc2cc(-n3cc(C(=O)NCCCN4CCOCC4)nn3)ccc2N2CCN(C)CC2)c1Cl [HYBI_039] |  |  | 0.108 | IC50 [1, 5]: 131 nM
18 | Cc1c(F)c(N)cc(C(=O)Nc2cc(-n3cc(C(=O)NC4CCN(C)CC4)nn3)c(F)cc2N2C[C@@H](C)N(C)[C@@H](C)C2)c1Cl [HYBI_087] |  |  | > 200 | IC50 [1, 5]: 2.6 nM
19 | Cc1c(F)c(N)cc(C(=O)Nc2cc(-n3cc(C(=O)NCCCN4CCOCC4)nn3)ccc2N2CCN(C)C(C)C2)c1Cl (centres unmarked) [DDO-2306] |  |  | 7.11 | 
20 | Cc1c(F)c(N)cc(C(=O)Nc2cc(-n3cc(C(=O)N(C)CCCN4CCOCC4)nn3)ccc2N2CCN(C)CC2)c1Cl [HYBI_019] |  |  | 27.1 | IC50 [1, 5]: 20.4 nM
21 | C[C@H]1CN(c2cc(F)c(-c3ccnc(OCC4CC4)c3)cc2Nc2ncnc(Cl)c2N)CCN1C [DDO-2213_008, (S)-6-chloro-N4-(5-(2-(cyclopropylmethoxy)pyridin-4-yl)-2-(3,4-dimethylpiperazin-1-yl)-4-fluorophenyl)pyrimidine-4,5-diamine] | 8.63 | 4.76 |  | 
22 | C[C@@H]1CN(c2cc(F)c(-n3cc(C(=O)N4CCOCC4)nn3)cc2Nc2ncnc(Cl)c2N)C[C@H](C)N1C [DDO-2213_010, (1-(5-((5-amino-6-chloropyrimidin-4-yl)amino)-2-fluoro-4-((3S,5R)-3,4,5-trimethylpiperazin-1-yl)phenyl)-1H-1,2,3-triazol-4-yl)(morpholino)methanone] | 250 | 7.93 |  | 
23 | CC(C)N1CCN(c2ncc(-c3cc(Nc4ncnc(Cl)c4N)c(N4C[C@@H](C)N(C)[C@@H](C)C4)cc3F)cn2)CC1 [DDO-2213_027, 6-chloro-N4-(4-fluoro-5-(2-(4-isopropylpiperazin-1-yl)pyrimidin-5-yl)-2-((3S,5R)-3,4,5-trimethylpiperazin-1-yl)phenyl)pyrimidine-4,5-diamine] | 31.3 | 6.56 |  | 
24 | Cc1c(F)c(N)cc(C(=O)Nc2cc(-n3cc(C(=O)NCCCN4CCOCC4)nn3)c(F)cc2N2CCN(C)[C@H](C)C2)c1Cl [DDO-2313] |  |  | 40.9 | 
25 | Cc1c(F)c(N)cc(C(=O)Nc2cc(-n3cc(C(=O)NCCCN4CCOCC4)nn3)c(F)cc2N2CCN(C)[C@@H](C)C2)c1Cl [DDO-2312] |  |  | 24.5 | 
26 | CN1CCN(c2ccc(-n3cc(C(=O)NCCCN4CCOCC4)nn3)cc2NC(=O)c2ccc(O)cc2C(F)(F)F)CC1 [HYBI_043] |  |  | 76 | 
27 | Cc1c(F)c(N)cc(C(=O)Nc2cc(-n3cc(C(=O)NCCCN4CCOCC4)nn3)ccc2N2CCN(C)[C@H](C)C2)c1Cl [DDO-2308] |  |  | 9.29 | 
28 | Cc1c(F)c(N)cc(C(=O)Nc2cc(-n3cc(C(=O)OCC4(C)CCCCC4)nn3)ccc2N2CCN(C)CC2)c1Cl [HYBI_014] |  |  | 2.62 | 
29 | COc1cc(N2CCN(C)CC2)c(NC(=O)c2cc(N)c(F)c(C)c2Cl)cc1-n1cc(C(=O)NCCCN2CCOCC2)nn1 [DDO-2315] |  |  | 24.5 | 
30 | Cc1cc(C(=O)Nc2cc(-n3cc(C(=O)NCCCN4CCOCC4)nn3)ccc2N2CCN(C)CC2)ccc1F [HYBI_041] |  |  | 13.2 | 
31 | COC(=O)c1cn(-c2cc(NC(=O)c3cc(N)c(F)c(C)c3Cl)c(N3CCN(C)CC3)cc2F)nn1 [DDO-2316] |  |  | 25.4 | 

From US20230286925A1, “PHENYL TRIAZOLE MLL1-WDR5 PROTEIN-PROTEIN INTERACTION INHIBITOR” (HUYABIO International, LLC, priority 2022, published 2023)
